Data as given in the kinase profiling compilation of Christmann-Franck et al. (2016).

Columns and labels:
Test in all cases: radiometric filter-binding kinase assay, Kinase HotSpot
Settings in all cases: compound 0.5 µM; ATP 10 µM
PLK1 (human) = PLK1 (human) (UniProt P53350)
YES1 (human) = YES1 (human) (UniProt P07947)
HIPK3 (human) = HIPK3 (human) (UniProt Q9H422)
CDK4 CCND1 (human) = CDK4 CCND1 (human) (UniProt P24385+P11802)
MAP3K7 TAB1 (human) = MAP3K7 TAB1 (human) (UniProt O43318+Q15750)
MAP3K10 (human) = MAP3K10 (human) (UniProt Q02779)
MAP3K2 (human) = MAP3K2 (human) (UniProt Q9Y2U5)
MAP3K14 (human) = MAP3K14 (human) (UniProt Q99558)
PIM1 (human) = PIM1 (human) (UniProt P11309)
[1] = molecular target: TYK2 JH1 catalytic (human) (UniProt P29597)
ACVR1B (human) = ACVR1B (human) (UniProt P36896)
MAP3K8 (human) = MAP3K8 (human) (UniProt P41279)
SRC (human) = SRC (human) (UniProt P12931)
CLK1 (human) = CLK1 (human) (UniProt P49759)
PBK (human) = PBK (human) (UniProt Q96KB5)
MAP2K2 (human) = MAP2K2 (human) (UniProt P36507)
PRKACA (human) = PRKACA (human) (UniProt P17612)
EPHA3 (human) = EPHA3 (human) (UniProt P29320)
DYRK3 (human) = DYRK3 (human) (UniProt O43781)
TGFBR2 (human) = TGFBR2 (human) (UniProt P37173)
MARK3 (human) = MARK3 (human) (UniProt P27448)
AURKA (human) = AURKA (human) (UniProt O14965)
EPHB1 (human) = EPHB1 (human) (UniProt P54762)
EPHA7 (human) = EPHA7 (human) (UniProt Q15375)
SGK3 (human) = SGK3 (human) (UniProt Q96BR1)
MAP2K1 (human) = MAP2K1 (human) (UniProt Q02750)
CSNK1G1 (human) = CSNK1G1 (human) (UniProt Q9HCP0)
IRAK4 (human) = IRAK4 (human) (UniProt Q9NWZ3)
STK33 (human) = STK33 (human) (UniProt Q9BYT3)
PRKD2 (human) = PRKD2 (human) (UniProt Q9BZL6)
GSK3A (human) = GSK3A (human) (UniProt P49840)
PKN1 (human) = PKN1 (human) (UniProt Q16512)
PRKCI (human) = PRKCI (human) (UniProt P41743)
RPS6KA2 KD1 KD2 (human) = RPS6KA2 KD1 KD2 (human) (UniProt Q15349)
CAMK1 (human) = CAMK1 (human) (UniProt Q14012)
CDK5 CDK5R1 p25 (human) = CDK5 CDK5R1 p25 (human) (UniProt Q00535+Q15078)
CLK3 (human) = CLK3 (human) (UniProt P49761)
TEC (human) = TEC (human) (UniProt P42680)
RPS6KA6 KD1 KD2 (human) = RPS6KA6 KD1 KD2 (human) (UniProt Q9UK32)
STK39 (human) = STK39 (human) (UniProt Q9UEW8)
LRRK2 (human) = LRRK2 (human) (UniProt Q5S007)

TEC (human), sequence (P42680 whole entry, looked up): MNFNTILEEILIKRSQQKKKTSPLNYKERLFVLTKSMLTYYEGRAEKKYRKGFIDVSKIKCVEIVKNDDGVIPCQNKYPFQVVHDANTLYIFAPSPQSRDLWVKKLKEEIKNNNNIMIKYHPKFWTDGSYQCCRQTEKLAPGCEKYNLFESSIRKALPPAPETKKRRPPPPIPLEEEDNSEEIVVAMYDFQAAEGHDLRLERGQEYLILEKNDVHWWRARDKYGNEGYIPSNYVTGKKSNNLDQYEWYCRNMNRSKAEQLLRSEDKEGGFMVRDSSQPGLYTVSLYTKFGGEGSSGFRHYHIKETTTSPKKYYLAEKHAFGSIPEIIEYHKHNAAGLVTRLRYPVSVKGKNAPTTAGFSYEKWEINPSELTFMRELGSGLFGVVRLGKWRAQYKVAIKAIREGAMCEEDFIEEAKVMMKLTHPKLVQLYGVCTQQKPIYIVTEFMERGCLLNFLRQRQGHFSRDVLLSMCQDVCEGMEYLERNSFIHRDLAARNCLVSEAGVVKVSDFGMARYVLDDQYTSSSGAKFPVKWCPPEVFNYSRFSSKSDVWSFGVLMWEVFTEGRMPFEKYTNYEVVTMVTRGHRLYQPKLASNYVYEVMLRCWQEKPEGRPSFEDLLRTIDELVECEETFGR
PRKD2 (human), sequence (Q9BZL6 whole entry, looked up): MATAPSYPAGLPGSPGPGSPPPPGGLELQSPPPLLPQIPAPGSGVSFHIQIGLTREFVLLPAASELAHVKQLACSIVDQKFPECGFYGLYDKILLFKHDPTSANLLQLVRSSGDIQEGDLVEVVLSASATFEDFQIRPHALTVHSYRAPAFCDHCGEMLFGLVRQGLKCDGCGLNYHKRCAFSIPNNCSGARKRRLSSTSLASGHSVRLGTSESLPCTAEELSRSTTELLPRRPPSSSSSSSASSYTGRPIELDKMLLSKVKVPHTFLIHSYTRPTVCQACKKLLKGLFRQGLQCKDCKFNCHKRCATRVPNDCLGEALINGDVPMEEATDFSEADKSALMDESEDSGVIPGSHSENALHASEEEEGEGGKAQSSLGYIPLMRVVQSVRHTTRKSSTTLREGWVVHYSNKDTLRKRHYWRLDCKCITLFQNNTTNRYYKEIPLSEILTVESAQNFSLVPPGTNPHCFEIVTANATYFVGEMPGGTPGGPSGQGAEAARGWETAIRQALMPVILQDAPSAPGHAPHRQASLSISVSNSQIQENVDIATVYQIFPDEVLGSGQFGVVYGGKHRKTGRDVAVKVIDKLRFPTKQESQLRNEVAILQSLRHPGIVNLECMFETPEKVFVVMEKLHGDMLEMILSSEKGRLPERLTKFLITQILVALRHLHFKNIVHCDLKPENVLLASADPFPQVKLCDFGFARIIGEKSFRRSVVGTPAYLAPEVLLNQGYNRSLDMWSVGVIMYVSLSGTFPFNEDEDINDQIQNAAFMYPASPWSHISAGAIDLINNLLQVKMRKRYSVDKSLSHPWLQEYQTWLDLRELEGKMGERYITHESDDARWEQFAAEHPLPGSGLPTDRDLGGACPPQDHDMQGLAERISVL
SGK3 (human), sequence (Q96BR1 whole entry, looked up): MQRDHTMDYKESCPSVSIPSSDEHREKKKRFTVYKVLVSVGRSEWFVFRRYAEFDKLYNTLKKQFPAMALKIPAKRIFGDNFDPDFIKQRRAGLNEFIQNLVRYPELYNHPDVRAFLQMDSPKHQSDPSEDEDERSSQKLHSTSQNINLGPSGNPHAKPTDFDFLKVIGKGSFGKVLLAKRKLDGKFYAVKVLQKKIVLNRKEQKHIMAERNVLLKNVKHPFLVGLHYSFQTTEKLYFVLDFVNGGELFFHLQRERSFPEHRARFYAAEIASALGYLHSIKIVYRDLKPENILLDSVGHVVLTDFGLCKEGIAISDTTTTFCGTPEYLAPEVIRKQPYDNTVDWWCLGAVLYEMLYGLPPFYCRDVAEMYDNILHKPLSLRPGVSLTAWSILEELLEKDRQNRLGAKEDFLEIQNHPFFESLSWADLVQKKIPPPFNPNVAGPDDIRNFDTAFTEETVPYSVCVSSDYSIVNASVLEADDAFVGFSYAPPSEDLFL
MAP3K2 (human), sequence (Q9Y2U5 whole entry, looked up): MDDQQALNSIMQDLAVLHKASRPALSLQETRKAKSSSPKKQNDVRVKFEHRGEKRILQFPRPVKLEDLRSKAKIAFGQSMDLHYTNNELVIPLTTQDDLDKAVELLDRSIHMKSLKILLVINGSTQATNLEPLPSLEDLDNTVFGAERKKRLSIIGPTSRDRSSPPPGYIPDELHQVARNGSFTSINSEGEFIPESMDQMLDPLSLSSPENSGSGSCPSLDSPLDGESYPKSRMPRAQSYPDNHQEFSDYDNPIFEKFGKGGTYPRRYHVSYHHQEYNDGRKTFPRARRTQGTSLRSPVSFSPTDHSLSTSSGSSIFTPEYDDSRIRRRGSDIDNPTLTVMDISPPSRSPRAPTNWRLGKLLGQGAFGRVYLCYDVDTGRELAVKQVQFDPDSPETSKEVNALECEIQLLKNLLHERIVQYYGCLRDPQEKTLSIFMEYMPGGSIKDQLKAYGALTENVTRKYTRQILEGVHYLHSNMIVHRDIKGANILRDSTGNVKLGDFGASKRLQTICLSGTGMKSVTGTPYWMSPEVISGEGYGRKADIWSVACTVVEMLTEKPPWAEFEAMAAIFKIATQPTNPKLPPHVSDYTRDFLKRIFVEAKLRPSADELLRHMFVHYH
PIM1 (human), sequence (P11309 whole entry, looked up): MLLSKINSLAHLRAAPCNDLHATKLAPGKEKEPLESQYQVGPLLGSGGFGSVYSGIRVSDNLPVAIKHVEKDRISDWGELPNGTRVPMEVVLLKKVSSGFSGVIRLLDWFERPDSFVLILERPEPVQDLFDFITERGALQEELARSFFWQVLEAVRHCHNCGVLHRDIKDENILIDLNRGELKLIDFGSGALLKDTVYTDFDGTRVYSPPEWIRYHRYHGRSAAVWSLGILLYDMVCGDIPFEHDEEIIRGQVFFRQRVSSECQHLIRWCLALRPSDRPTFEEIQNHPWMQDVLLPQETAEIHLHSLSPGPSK
TGFBR2 (human), sequence (P37173 whole entry, looked up): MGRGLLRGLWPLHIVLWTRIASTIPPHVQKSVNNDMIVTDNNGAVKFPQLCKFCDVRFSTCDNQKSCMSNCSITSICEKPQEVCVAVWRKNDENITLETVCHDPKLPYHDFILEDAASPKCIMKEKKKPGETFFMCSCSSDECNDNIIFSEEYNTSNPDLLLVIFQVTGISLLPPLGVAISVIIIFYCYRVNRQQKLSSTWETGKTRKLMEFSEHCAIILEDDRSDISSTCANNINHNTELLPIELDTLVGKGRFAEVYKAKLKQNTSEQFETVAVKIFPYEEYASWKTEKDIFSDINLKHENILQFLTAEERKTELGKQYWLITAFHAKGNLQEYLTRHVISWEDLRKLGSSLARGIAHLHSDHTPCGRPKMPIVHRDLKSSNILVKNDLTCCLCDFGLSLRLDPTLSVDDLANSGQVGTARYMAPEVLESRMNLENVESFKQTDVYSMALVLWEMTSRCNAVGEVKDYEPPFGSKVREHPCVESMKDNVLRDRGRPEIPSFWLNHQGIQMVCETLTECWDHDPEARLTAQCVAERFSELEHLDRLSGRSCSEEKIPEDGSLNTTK
STK33 (human), sequence (Q9BYT3 whole entry, looked up): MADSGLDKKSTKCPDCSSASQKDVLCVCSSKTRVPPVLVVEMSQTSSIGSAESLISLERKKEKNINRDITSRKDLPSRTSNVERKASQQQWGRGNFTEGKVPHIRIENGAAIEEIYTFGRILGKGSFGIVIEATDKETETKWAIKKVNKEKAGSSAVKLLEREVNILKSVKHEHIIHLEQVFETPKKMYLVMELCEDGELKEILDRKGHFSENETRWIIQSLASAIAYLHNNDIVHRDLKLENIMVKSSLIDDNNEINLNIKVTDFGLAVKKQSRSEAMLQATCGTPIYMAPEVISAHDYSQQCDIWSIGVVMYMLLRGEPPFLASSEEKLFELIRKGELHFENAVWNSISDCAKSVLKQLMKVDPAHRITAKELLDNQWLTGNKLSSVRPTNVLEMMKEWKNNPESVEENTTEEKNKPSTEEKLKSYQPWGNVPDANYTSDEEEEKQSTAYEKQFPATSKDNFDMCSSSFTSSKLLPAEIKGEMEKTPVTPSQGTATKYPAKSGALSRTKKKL
AURKA (human), sequence (O14965 whole entry, looked up): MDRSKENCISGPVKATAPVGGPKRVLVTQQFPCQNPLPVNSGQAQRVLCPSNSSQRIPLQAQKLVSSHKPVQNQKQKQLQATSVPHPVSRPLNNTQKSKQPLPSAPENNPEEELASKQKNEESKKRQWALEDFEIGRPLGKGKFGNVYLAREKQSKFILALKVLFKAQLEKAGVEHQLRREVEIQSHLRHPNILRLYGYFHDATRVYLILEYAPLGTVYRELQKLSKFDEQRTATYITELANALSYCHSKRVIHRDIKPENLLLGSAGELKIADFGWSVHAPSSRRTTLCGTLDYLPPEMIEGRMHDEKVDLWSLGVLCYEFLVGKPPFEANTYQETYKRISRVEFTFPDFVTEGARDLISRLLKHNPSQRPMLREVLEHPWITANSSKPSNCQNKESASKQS
CSNK1G1 (human), sequence (Q9HCP0 whole entry, looked up): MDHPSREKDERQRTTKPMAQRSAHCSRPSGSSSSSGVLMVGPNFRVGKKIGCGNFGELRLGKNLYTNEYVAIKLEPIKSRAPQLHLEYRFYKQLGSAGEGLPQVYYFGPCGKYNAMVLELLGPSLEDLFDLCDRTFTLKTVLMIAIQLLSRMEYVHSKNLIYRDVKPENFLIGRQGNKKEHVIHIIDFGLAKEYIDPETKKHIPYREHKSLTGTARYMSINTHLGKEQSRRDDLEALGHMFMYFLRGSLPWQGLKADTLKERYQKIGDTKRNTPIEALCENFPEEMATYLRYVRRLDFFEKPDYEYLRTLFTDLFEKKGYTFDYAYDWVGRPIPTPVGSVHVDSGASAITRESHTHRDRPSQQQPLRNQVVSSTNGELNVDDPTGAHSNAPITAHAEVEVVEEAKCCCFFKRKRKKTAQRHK

Compound: O=c1cc(N2CCNCC2)oc2c(-c3ccccc3)cccc12
- residual activity (PLK1 (human)): 96.6%
- residual activity (YES1 (human)): 96.4%
- residual activity (HIPK3 (human)): 116%
- residual activity (CDK4 CCND1 (human)): 115%
- residual activity (MAP3K7 TAB1 (human)): 94.2%
- residual activity (MAP3K10 (human)): 87.9%
- residual activity (MAP3K2 (human)): 105%
- residual activity (MAP3K14 (human)): 110%
- residual activity (PIM1 (human)): 92.4%
- residual activity [1]: 98.5%
- residual activity (ACVR1B (human)): 105%
- residual activity (MAP3K8 (human)): 95.2%
- residual activity (SRC (human)): 91.2%
- residual activity (CLK1 (human)): 102%
- residual activity (PBK (human)): 124%
- residual activity (MAP2K2 (human)): 94%
- residual activity (PRKACA (human)): 110%
- residual activity (EPHA3 (human)): 88.5%
- residual activity (DYRK3 (human)): 97.8%
- residual activity (TGFBR2 (human)): 88.4%
- residual activity (MARK3 (human)): 88.8%
- residual activity (AURKA (human)): 105%
- residual activity (EPHB1 (human)): 94.8%
- residual activity (EPHA7 (human)): 102%
- residual activity (SGK3 (human)): 111%
- residual activity (MAP2K1 (human)): 103%
- residual activity (CSNK1G1 (human)): 103%
- residual activity (IRAK4 (human)): 96.8%
- residual activity (STK33 (human)): 86.1%
- residual activity (PRKD2 (human)): 86.7%
- residual activity (GSK3A (human)): 99.7%
- residual activity (PKN1 (human)): 99.6%
- residual activity (PRKCI (human)): 105%
- residual activity (RPS6KA2 KD1 KD2 (human)): 106%
- residual activity (CAMK1 (human)): 99.2%
- residual activity (CDK5 CDK5R1 p25 (human)): 94.5%
- residual activity (CLK3 (human)): 109%
- residual activity (TEC (human)): 99.8%
- residual activity (RPS6KA6 KD1 KD2 (human)): 99%
- residual activity (STK39 (human)): 88.5%
- residual activity (LRRK2 (human)): 101%

Compound: CSc1nc(-c2ccc(F)cc2)c(-c2ccnc(NC(C)c3ccccc3)c2)[nH]1 (centres undefined)
- residual activity (PLK1 (human)): 99.1%
- residual activity (YES1 (human)): 91.8%
- residual activity (HIPK3 (human)): 101%
- residual activity (CDK4 CCND1 (human)): 109%
- residual activity (MAP3K7 TAB1 (human)): 90.5%
- residual activity (MAP3K10 (human)): 90.6%
- residual activity (MAP3K2 (human)): 101%
- residual activity (MAP3K14 (human)): 127%
- residual activity (PIM1 (human)): 91.8%
- residual activity [1]: 96.5%
- residual activity (ACVR1B (human)): 95.9%
- residual activity (MAP3K8 (human)): 88.6%
- residual activity (SRC (human)): 99%
- residual activity (CLK1 (human)): 96.8%
- residual activity (PBK (human)): 109%
- residual activity (MAP2K2 (human)): 78.6%
- residual activity (PRKACA (human)): 96%
- residual activity (EPHA3 (human)): 82.5%
- residual activity (DYRK3 (human)): 94.2%
- residual activity (TGFBR2 (human)): 96.5%
- residual activity (MARK3 (human)): 100%
- residual activity (AURKA (human)): 99.9%
- residual activity (EPHB1 (human)): 96.4%
- residual activity (EPHA7 (human)): 102%
- residual activity (SGK3 (human)): 103%
- residual activity (MAP2K1 (human)): 93.9%
- residual activity (CSNK1G1 (human)): 67.2%
- residual activity (IRAK4 (human)): 82.6%
- residual activity (STK33 (human)): 107%
- residual activity (PRKD2 (human)): 86.4%
- residual activity (GSK3A (human)): 94.1%
- residual activity (PKN1 (human)): 105%
- residual activity (PRKCI (human)): 91.9%
- residual activity (RPS6KA2 KD1 KD2 (human)): 94.3%
- residual activity (CAMK1 (human)): 96.2%
- residual activity (CDK5 CDK5R1 p25 (human)): 76.1%
- residual activity (CLK3 (human)): 85.4%
- residual activity (TEC (human)): 120%
- residual activity (RPS6KA6 KD1 KD2 (human)): 93.1%
- residual activity (STK39 (human)): 95%
- residual activity (LRRK2 (human)): 100%

Compound: Clc1ccc(Nc2nnc(Cc3ccncc3)c3ccccc23)cc1
- residual activity (PLK1 (human)): 95.9%
- residual activity (YES1 (human)): 93%
- residual activity (HIPK3 (human)): 96.5%
- residual activity (CDK4 CCND1 (human)): 96.6%
- residual activity (MAP3K7 TAB1 (human)): 99.6%
- residual activity (MAP3K10 (human)): 110%
- residual activity (MAP3K2 (human)): 126%
- residual activity (MAP3K14 (human)): 126%
- residual activity (PIM1 (human)): 102%
- residual activity [1]: 89.4%
- residual activity (ACVR1B (human)): 108%
- residual activity (MAP3K8 (human)): 98.2%
- residual activity (SRC (human)): 104%
- residual activity (CLK1 (human)): 110%
- residual activity (PBK (human)): 108%
- residual activity (MAP2K2 (human)): 100%
- residual activity (PRKACA (human)): 98.1%
- residual activity (EPHA3 (human)): 98.8%
- residual activity (DYRK3 (human)): 95.9%
- residual activity (TGFBR2 (human)): 100%
- residual activity (MARK3 (human)): 102%
- residual activity (AURKA (human)): 79%
- residual activity (EPHB1 (human)): 107%
- residual activity (EPHA7 (human)): 90.5%
- residual activity (SGK3 (human)): 99.2%
- residual activity (MAP2K1 (human)): 100%
- residual activity (CSNK1G1 (human)): 103%
- residual activity (IRAK4 (human)): 85.1%
- residual activity (STK33 (human)): 94.2%
- residual activity (PRKD2 (human)): 86%
- residual activity (GSK3A (human)): 103%
- residual activity (PKN1 (human)): 95.9%
- residual activity (PRKCI (human)): 94.2%
- residual activity (RPS6KA2 KD1 KD2 (human)): 97.5%
- residual activity (CAMK1 (human)): 100%
- residual activity (CDK5 CDK5R1 p25 (human)): 91.3%
- residual activity (CLK3 (human)): 105%
- residual activity (TEC (human)): 137%
- residual activity (RPS6KA6 KD1 KD2 (human)): 99.7%
- residual activity (STK39 (human)): 92.6%
- residual activity (LRRK2 (human)): 74.8%

Compound: O=C(NC(NC(=S)Nc1ccc(F)c([N+](=O)[O-])c1)C(Cl)(Cl)Cl)C(c1ccccc1)c1ccccc1 (centres undefined)
- residual activity (PLK1 (human)): 111%
- residual activity (YES1 (human)): 94.6%
- residual activity (HIPK3 (human)): 105%
- residual activity (CDK4 CCND1 (human)): 116%
- residual activity (MAP3K7 TAB1 (human)): 89.7%
- residual activity (MAP3K10 (human)): 98.9%
- residual activity (MAP3K2 (human)): 96.8%
- residual activity (MAP3K14 (human)): 92.1%
- residual activity (PIM1 (human)): 101%
- residual activity [1]: 94%
- residual activity (ACVR1B (human)): 106%
- residual activity (MAP3K8 (human)): 105%
- residual activity (SRC (human)): 96.1%
- residual activity (CLK1 (human)): 106%
- residual activity (PBK (human)): 116%
- residual activity (MAP2K2 (human)): 82.3%
- residual activity (PRKACA (human)): 102%
- residual activity (EPHA3 (human)): 105%
- residual activity (DYRK3 (human)): 100%
- residual activity (TGFBR2 (human)): 91.6%
- residual activity (MARK3 (human)): 104%
- residual activity (AURKA (human)): 80.8%
- residual activity (EPHB1 (human)): 109%
- residual activity (EPHA7 (human)): 109%
- residual activity (SGK3 (human)): 85.8%
- residual activity (MAP2K1 (human)): 95.1%
- residual activity (CSNK1G1 (human)): 83.3%
- residual activity (IRAK4 (human)): 191%
- residual activity (STK33 (human)): 99.6%
- residual activity (PRKD2 (human)): 107%
- residual activity (GSK3A (human)): 105%
- residual activity (PKN1 (human)): 92.8%
- residual activity (PRKCI (human)): 94%
- residual activity (RPS6KA2 KD1 KD2 (human)): 101%
- residual activity (CAMK1 (human)): 93.1%
- residual activity (CDK5 CDK5R1 p25 (human)): 96.8%
- residual activity (CLK3 (human)): 124%
- residual activity (TEC (human)): 201%
- residual activity (RPS6KA6 KD1 KD2 (human)): 94.7%
- residual activity (STK39 (human)): 77%
- residual activity (LRRK2 (human)): 99.3%
